Measurements published in paper PMC4280904 (Journal of Veterinary Pharmacology and Therapeutics, 2014).
Several values for one entry are separate records, joined by “and”; a condition that tells them apart may be missing. Equal entries are not always repeated. Marks after values point to notes of the source that are not given here.

What was measured:
[1] = Dose linearity of imepitoin after oral dosing; format: in vivo, beagle dogs; settings: for Cmax / Tmax: both, beagle, dog, plasma, po; for Tlag obs: enteric-coated capsules, mean ± SEM, n=6
NAT2 = assay: In vivo enzyme induction: N-acetyltransferase, procainamide; set-up: species or system Wistar rats; settings: rats, 3–100 mg/kg p.o. once daily 7 days
CYP2C8 = CYP2C8 (Homo sapiens, UniProt P10632); assay: In vitro enzyme inhibition, recombinant CYP, fluorescent metabolites; format: in vitro ADME; settings: up to the highest concentration tested (100 μM)
CYP2C8, sequence (P10632 whole entry): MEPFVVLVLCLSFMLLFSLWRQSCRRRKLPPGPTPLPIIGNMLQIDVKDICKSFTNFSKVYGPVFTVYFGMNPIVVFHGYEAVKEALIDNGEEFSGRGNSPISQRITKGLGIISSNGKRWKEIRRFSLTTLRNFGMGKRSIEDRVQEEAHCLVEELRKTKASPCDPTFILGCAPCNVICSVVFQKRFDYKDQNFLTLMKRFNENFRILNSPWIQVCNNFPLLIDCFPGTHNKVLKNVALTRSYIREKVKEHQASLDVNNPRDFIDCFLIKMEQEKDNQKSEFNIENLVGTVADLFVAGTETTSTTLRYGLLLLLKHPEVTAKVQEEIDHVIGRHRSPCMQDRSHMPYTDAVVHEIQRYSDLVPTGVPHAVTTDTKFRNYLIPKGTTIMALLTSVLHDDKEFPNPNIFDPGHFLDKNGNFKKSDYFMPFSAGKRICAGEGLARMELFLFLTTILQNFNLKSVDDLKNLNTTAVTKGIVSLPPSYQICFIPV

[2] = tested on: canine idiopathic epilepsy; settings: epileptic dogs, dose escalation; ref Löscher et al., 2004; Rieck et al., 2006; cited from earlier work
CYP1A1 = CYP1A1 (Homo sapiens, UniProt P04798); assay: In vitro enzyme inhibition, recombinant CYP, fluorescent metabolites; format: in vitro ADME
CYP1A1, sequence (P04798 whole entry): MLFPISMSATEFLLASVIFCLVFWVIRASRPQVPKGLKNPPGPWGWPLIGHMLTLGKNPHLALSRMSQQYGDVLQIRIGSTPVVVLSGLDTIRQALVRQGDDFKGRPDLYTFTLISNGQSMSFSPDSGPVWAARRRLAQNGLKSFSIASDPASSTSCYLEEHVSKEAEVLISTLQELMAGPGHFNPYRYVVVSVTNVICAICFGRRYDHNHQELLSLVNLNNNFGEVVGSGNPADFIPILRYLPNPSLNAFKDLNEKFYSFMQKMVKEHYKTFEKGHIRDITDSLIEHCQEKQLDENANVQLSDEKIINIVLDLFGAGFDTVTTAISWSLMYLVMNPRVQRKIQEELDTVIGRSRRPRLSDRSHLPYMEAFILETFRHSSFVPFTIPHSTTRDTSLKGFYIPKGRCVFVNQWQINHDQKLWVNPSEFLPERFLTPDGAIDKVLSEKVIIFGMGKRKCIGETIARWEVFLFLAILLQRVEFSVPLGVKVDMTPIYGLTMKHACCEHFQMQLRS

[3] = ref Heinecke & Thiel, 2001; cited from earlier work
plasma protein [4] = assay: In vivo plasma protein binding in dogs dosed with [14C] imepitoin; format: in vitro ADME, beagle dogs
[5] = dogs, 5 mg/kg, at time of seizure induction; ref Löscher et al., 2004; cited from earlier work
CYP2D1 = assay: In vivo enzyme induction: dextromethorphan O-demethylase; set-up: species or system Wistar rats; settings: rats, 3–100 mg/kg p.o. once daily 7 days
plasma protein [6] = assay: In vitro plasma protein binding; format: in vitro ADME, rats; settings: rat
[7] = ref Heinecke & Thiel, 2001; cited from earlier work; remark: listed apart in the source
plasma protein [8] = assay: In vitro plasma protein binding; format: in vitro ADME, beagle dogs; settings: beagle, dog, heparinized plasma, mean ± SEM, n=3
[9] = Excretion balance of [14C] imepitoin after oral and intravenous dosing; format: in vivo, beagle dogs; settings: for Fraction excreted, Total / Fraction excreted, Urine + Cage wash / Fraction excreted, Feces: cumulative radioactivity, mean (CV %)
CYP1A2 = CYP1A2 (Homo sapiens, UniProt P05177); assay: In vitro enzyme inhibition, recombinant CYP, fluorescent metabolites; format: in vitro ADME
CYP1A2, sequence (P05177 whole entry): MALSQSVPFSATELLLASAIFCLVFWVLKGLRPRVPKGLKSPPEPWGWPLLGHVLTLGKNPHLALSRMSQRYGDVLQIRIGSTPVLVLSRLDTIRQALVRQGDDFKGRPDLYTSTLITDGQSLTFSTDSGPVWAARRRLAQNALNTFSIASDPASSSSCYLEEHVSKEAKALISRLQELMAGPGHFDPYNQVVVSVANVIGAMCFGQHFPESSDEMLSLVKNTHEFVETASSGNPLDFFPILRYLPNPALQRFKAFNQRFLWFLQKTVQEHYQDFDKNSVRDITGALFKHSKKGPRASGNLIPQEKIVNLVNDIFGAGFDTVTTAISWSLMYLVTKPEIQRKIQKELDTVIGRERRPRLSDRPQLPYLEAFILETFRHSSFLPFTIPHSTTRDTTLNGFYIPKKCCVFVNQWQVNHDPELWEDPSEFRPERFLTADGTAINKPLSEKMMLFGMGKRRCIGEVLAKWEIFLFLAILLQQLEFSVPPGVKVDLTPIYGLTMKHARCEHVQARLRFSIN

CYP3A4 = CYP3A4 (Homo sapiens, UniProt P08684); assay: as above; format: in vitro ADME; settings: up to the highest concentration tested (100 μM)
CYP3A4, sequence (P08684 whole entry): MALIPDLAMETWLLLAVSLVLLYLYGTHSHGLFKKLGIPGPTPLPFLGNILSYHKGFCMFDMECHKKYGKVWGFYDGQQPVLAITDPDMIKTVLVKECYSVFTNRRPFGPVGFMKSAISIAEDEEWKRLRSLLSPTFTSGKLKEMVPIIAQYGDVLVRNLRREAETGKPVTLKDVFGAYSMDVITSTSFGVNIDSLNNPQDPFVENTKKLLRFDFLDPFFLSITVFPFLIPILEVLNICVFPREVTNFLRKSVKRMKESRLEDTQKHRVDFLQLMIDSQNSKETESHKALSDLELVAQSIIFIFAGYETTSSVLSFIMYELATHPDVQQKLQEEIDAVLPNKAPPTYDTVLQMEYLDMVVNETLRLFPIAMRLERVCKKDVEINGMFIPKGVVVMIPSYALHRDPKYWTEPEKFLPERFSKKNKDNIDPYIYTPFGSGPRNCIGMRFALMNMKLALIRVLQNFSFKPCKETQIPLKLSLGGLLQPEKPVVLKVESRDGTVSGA

CYP2A = assay: In vivo enzyme induction: ethoxycoumarin O-deethylase; set-up: species or system Wistar rats; settings: rats, 3–100 mg/kg p.o. once daily 7 days
Single dose and repeated = format: in vivo, beagle dogs; settings: 30 mg/kg tablets p.o.; for AUC(0-inf): AUCinf; for Vd/F: Vz/f
CYP3A = assay: In vivo enzyme induction: erythromycin N-demethylase; set-up: species or system Wistar rats; settings: rats, 3–100 mg/kg p.o. once daily 7 days
CYP2A6 = CYP2A6 (Homo sapiens, UniProt P11509); assay: In vitro enzyme inhibition, recombinant CYP, fluorescent metabolites; format: in vitro ADME
CYP2A6, sequence (P11509 whole entry): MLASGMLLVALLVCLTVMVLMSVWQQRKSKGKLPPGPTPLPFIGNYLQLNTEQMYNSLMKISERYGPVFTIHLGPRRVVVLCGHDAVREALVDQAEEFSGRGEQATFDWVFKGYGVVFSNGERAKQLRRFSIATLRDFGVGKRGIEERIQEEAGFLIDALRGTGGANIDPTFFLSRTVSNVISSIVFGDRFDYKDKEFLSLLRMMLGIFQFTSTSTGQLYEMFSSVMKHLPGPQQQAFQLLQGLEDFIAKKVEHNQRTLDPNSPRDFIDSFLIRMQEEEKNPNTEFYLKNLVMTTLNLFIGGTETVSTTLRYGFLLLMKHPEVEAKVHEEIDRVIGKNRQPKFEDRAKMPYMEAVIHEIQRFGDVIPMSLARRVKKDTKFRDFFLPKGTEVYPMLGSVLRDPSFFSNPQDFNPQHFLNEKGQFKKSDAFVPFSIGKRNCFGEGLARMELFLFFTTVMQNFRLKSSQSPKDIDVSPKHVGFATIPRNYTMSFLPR

NAT1 = assay: In vivo enzyme induction: N-acetyltransferase, p-aminobenzoic acid; set-up: species or system Wistar rats; settings: rats, 3–100 mg/kg p.o. once daily 7 days
CYP2C9 = CYP2C9 (Homo sapiens, UniProt P11712); assay: In vitro enzyme inhibition, recombinant CYP, fluorescent metabolites
CYP2C9, sequence (P11712 whole entry): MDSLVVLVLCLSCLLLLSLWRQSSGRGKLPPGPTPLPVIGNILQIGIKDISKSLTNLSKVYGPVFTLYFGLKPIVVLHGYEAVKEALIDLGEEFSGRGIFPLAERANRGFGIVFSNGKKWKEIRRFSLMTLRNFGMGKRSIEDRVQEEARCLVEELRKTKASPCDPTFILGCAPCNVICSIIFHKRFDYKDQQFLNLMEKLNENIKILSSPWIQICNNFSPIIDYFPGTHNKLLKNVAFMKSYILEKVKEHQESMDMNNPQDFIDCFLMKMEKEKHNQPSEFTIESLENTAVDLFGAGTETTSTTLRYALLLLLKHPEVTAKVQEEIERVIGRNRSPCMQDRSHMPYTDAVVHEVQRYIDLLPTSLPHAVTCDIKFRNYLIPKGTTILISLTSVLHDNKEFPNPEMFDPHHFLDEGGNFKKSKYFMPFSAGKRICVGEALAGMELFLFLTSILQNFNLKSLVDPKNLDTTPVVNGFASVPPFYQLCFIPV

[10] = both, beagle, dog, plasma, po, 30 mg/kg, Fasted
[11] = both, beagle, dog, plasma, po, 30 mg/kg, Fed
[12] = both, beagle, dog, plasma, po, 30 mg/kg, Day 0, fed
[13] = both, beagle, dog, plasma, po, 30 mg/kg, Day 5, fed
[14] = female, beagle, dog, plasma, po, 30 mg/kg, Females
[15] = male, beagle, dog, plasma, po, 30 mg/kg, Males
[16] = male, beagle, dog, plasma, po, 30 mg/kg, Males, fed

## O=C1N=C(N2CCOCC2)CN1c1ccc(Cl)cc1 [Imepitoin, 1-(4-chlorophenyl)-4-morpholino-imidazolin-2-one]
[1]; 10 mg/kg
  Cmax: 1820 ± 920 ng/mL
  Tmax: 8.67 ± 3.1 h
[1]; 20 mg/kg
  Cmax: 3500 ± 1070 ng/mL
  Tmax: 10.7 ± 4 h
[1]; 50 mg/kg
  Cmax: 6410 ± 1750 ng/mL
  Tmax: 18 ± 3.8 h
[1]; 100 mg/kg
  Tmax: 8.67 ± 3.1 h
[1]; single dose 10 mg/kg p.o.
  Tlag obs: 3.67 ± 0.92 h
[1]; single dose 20 mg/kg p.o.
  Tlag obs: 5.67 ± 0.95 h
[1]; single dose 50 mg/kg p.o.
  Tlag obs: 4.17 ± 1.05 h
[1]; single dose 100 mg/kg p.o.
  Tlag obs: 2.25 ± 0.94 h
NAT2
  induction of NAT2: did not induce
CYP2C8
  influence on activity of CYP2C8: did not influence
[2]
  anti-epileptic activity versus historical phenobarbital data: comparable anti-epileptic activity
  tolerability versus phenobarbital: clearly superior to phenobarbital
CYP1A1
  IC50: 55 µM
[3]
  solubility in acidic media such as gastric fluid: more readily soluble in acidic media
  solubility in aqueous media: very low solubility in aqueous media
Plasma protein [4]; 2 h after 20 mg/kg p.o. or 1 mg/kg i.v.
  in vivo plasma protein binding: 59–69%
Plasma protein [4]; 8 h after 20 mg/kg p.o. or 1 mg/kg i.v.
  in vivo plasma protein binding: 62–72%
Plasma protein [4]; female dogs, 1 mg/kg i.v., 2 h after dosing, mean ± SEM
  In vivo protein binding: 59 ± 0.69%
Plasma protein [4]; female dogs, 1 mg/kg i.v., 4 h after dosing, mean ± SEM
  In vivo protein binding: 66 ± 2.66%
Plasma protein [4]; female dogs, 1 mg/kg i.v., 8 h after dosing, mean ± SEM
  In vivo protein binding: 72 ± 1.33%
Plasma protein [4]; female dogs, 20 mg/kg p.o., 2 h after dosing
  In vivo protein binding: 69 (n < 3) %
Plasma protein [4]; female dogs, 20 mg/kg p.o., 4 h after dosing, mean ± SEM
  In vivo protein binding: 66 ± 0.69%
Plasma protein [4]; female dogs, 20 mg/kg p.o., 8 h after dosing, mean ± SEM
  In vivo protein binding: 62 ± 7.68%
Plasma protein [4]; male dogs, 20 mg/kg p.o., 2 h after dosing
  In vivo protein binding: 60 (n < 3) %
Plasma protein [4]; male dogs, 20 mg/kg p.o., 4 h after dosing, mean ± SEM
  In vivo protein binding: 63 ± 1.62%
Plasma protein [4]; male dogs, 20 mg/kg p.o., 8 h after dosing, mean ± SEM
  In vivo protein binding: 67 ± 2.71%
[5]
  peak plasma concentration: 1400 to 1700 ng/mL
CYP2D1
  induction of CYP2D1: did not induce
Plasma protein [6]; heparinized plasma
  fraction unbound at 15 min, 0.1 μg/mL: 0.49
  fraction unbound at 15 min, 1 μg/mL: 0.5 ± 0.0064
  fraction unbound at 15 min, 10 μg/mL: 0.5 ± 0.011
Plasma protein [6]; plasma (heparinized, pool of five fasted animals)
  fraction unbound at 15 min: 0.49 to 0.5
[7]
  lipophilicity: high lipophilicity
Plasma protein [8]
  fraction unbound at 15 min, 10 μg/mL: 0.44
[9]; 20 mg/kg p.o. (3 male, 3 female dogs) and 1 mg/kg i.v. (3 female dogs)
  tolerability, clinical adverse events: well tolerated
[9]; after oral dosing, range males/females
  total radioactivity excreted urinary: 27–38%
[9]; females, 1 mg/kg i.v., 0–8 h
  Fraction excreted, Total: 30.62 (n < 3) % of intravenous dose
  Fraction excreted, Urine + Cage wash: 30.62 (n < 3) % of intravenous dose
[9]; females, 1 mg/kg i.v., 0–24 h
  Fraction excreted, Feces: 54.74 (n < 3) % of intravenous dose
  Fraction excreted, Total: 74.07 (33.4) % of intravenous dose
  Fraction excreted, Urine + Cage wash: 37.58 (19.1) % of intravenous dose
[9]; females, 1 mg/kg i.v., 0–48 h
  Fraction excreted, Feces: 68.33 (n < 3) % of intravenous dose
  Fraction excreted, Total: 85.43 (37.2) % of intravenous dose
  Fraction excreted, Urine + Cage wash: 39.87 (19.9) % of intravenous dose
[9]; females, 1 mg/kg i.v., 0–264 h
  Fraction excreted, Total: 104.43 (4.4) % of intravenous dose
[9]; females, 20 mg/kg p.o., 0–8 h
  Fraction excreted, Feces: 0.09 (n < 3) % of oral dose
  Fraction excreted, Total: 8.04 (n < 3) % of oral dose
  Fraction excreted, Urine + Cage wash: 7.95 (n < 3) % of oral dose
[9]; females, 20 mg/kg p.o., 0–24 h
  Fraction excreted, Feces: 40.62 (n < 3) % of oral dose
  Fraction excreted, Total: 63.58 (n < 3) % of oral dose
  Fraction excreted, Urine + Cage wash: 22.96 (n < 3) % of oral dose
[9]; females, 20 mg/kg p.o., 0–48 h
  Fraction excreted, Feces: 45.64 (22.0) % of oral dose
  Fraction excreted, Total: 76.52 (20.8) % of oral dose
  Fraction excreted, Urine + Cage wash: 30.88 (23.3) % of oral dose
[9]; females, 20 mg/kg p.o., 0–264 h
  Fraction excreted, Total: 93.84 (8.4) % of oral dose
[9]; males, 20 mg/kg p.o., 0–8 h
  Fraction excreted, Total: 0.58 (n < 3) % of oral dose
  Fraction excreted, Urine + Cage wash: 0.58 (n < 3) % of oral dose
[9]; males, 20 mg/kg p.o., 0–24 h
  Fraction excreted, Feces: 34.41 (92.2) % of oral dose
  Fraction excreted, Total: 51.11 (66.2) % of oral dose
  Fraction excreted, Urine + Cage wash: 16.70 (20.9) % of oral dose
[9]; males, 20 mg/kg p.o., 0–48 h
  Fraction excreted, Feces: 75.65 (12.3) % of oral dose
  Fraction excreted, Total: 97.51 (6.4) % of oral dose
  Fraction excreted, Urine + Cage wash: 21.86 (20.5) % of oral dose
[9]; males, 20 mg/kg p.o., 0–264 h
  Fraction excreted, Total: 104.74 (2.8) % of oral dose
[9]; urine + feces, range over dosing groups
  total radioactivity excreted within 48 h: 76–97% and 76.5–97.5%
CYP1A2
  IC50: > 100 µM
CYP1A2; recombinant human CYP1A2
  Inhibition of the specific cytochrome P450 isoform IC50, 1A2: did not influence
CYP3A4
  influence on activity of CYP3A4: did not influence
CYP2A
  induction of CYP2A: did not induce
Single dose and repeated; beagle dogs
  maximal plasma concentrations: 14.9 to 17.2 µg/mL
Single dose and repeated; crossover fed vs fasted
  reduction of total AUC by co-administration with food: 30%
Single dose and repeated; fasted vs fed
  AUCinf greater for fasted dogs: 30%
Single dose and repeated; Day 5 (after 4 days BID)
  Tmax: 1.75 ^* h
Single dose and repeated; Fasted
  Terminal T½: 1.47 h
Single dose and repeated; Fed
  Terminal T½: 1.95 ^* h
Single dose and repeated; [10]
  AUC(0-inf): 90300 ng·h/mL
  CL/F: 5.33 mL/min/kg
  Cmax: 17200 ng/mL
  Vd/F: 0.663 L/kg
Single dose and repeated; [11]
  AUC(0-inf): 69200 ng·h/mL
  CL/F: 6.95 mL/min/kg
  Cmax: 14900 ng/mL
  Vd/F: 1.13 L/kg
Single dose and repeated; [12]
  CL/F: 5.42 mL/min/kg
  Cmax: 15000 ng/mL
  Vd/F: 0.892 L/kg
Single dose and repeated; [13]
  CL/F: 8.92 mL/min/kg
  Cmax: 14800 ng/mL
  Vd/F: 1.43 L/kg
Single dose and repeated; both, beagle, dog, plasma, po, 30 mg/kg, Terminal T½, Fed
  half-life: 2 h
Single dose and repeated; both, beagle, dog, plasma, po, 30 mg/kg, Tmax, Day 0, fed
  Tmax: 2.6 h
Single dose and repeated; both, beagle, dog, plasma, po, 30 mg/kg, Tmax, Day 5, fed
  Tmax: 1.44 h
Single dose and repeated; both, beagle, dog, plasma, po, 30 mg/kg, Tmax, Fasted
  Tmax: 2.17 h
Single dose and repeated; both, beagle, dog, plasma, po, 30 mg/kg, Tmax, Fed
  Tmax: 2.02 h
Single dose and repeated; [14]
  CL/F: 5.83 mL/min/kg
  Cmax: 18100 ng/mL
  Vd/F: 0.833 L/kg
Single dose and repeated; female, beagle, dog, plasma, po, 30 mg/kg, Tmax, Females
  Tmax: 1.89 h
Single dose and repeated; [15]
  AUC(0-inf): 75500 ng·h/mL
  CL/F: 6.33 mL/min/kg
  Cmax: 14200 ng/mL
  Vd/F: 0.899 L/kg
Single dose and repeated; [16]
  CL/F: 7.33 mL/min/kg
  Cmax: 12500 ng/mL
  Vd/F: 1.19 L/kg
Single dose and repeated; male, beagle, dog, plasma, po, 30 mg/kg, Tmax, Males
  Tmax: 2.3 h
Single dose and repeated; male, beagle, dog, plasma, po, 30 mg/kg, Tmax, Males, fed
  Tmax: 2.44 h
CYP3A
  induction of CYP3A: did not induce
CYP2A6
  IC50: > 100 µM
CYP2A6; recombinant human CYP2A6
  Inhibition of the specific cytochrome P450 isoform IC50, 2A6: did not influence
NAT1
  induction of NAT1: did not induce
CYP2C9
  IC50: > 100 µM
CYP2C9; recombinant human CYP2C9
  Inhibition of the specific cytochrome P450 isoform IC50, 2C9: did not influence
